# From patent US7501418B2, “Fused heterocyclic isoxazoline derivatives and their use as anti-depressants” (Janssen Pharmaceutica, N.V., priority 2002, dated 2009)
# Structures can show the parent of a compound that is named as a salt. Where two headings read alike, the source gives them in different places.
# Legend:
# hα2A receptor = molecular target: T1, hα2A receptor (Homo sapiens, UniProt P08913); test: Radioligand binding experiment for α2A-adrenergic receptor ([3H]-raulwolscine); conditions: CHO cell membranes with human α2A receptor, [3H]raulwolscine 1 nM
# T1 construct: expressed in transfected cells
# T1 sequence (P08913 1-465): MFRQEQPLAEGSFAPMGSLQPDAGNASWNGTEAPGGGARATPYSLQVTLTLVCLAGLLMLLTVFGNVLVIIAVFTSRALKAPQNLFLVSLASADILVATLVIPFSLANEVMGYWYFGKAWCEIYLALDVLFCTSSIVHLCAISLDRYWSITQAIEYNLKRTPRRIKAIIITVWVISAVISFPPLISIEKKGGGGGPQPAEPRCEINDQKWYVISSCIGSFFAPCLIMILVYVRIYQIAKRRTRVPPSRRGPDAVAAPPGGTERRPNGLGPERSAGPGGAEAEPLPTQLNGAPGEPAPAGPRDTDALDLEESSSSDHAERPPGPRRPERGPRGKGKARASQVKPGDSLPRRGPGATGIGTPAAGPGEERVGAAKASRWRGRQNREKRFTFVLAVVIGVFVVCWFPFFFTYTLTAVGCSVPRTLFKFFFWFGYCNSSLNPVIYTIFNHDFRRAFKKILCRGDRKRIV
# Protocol: (§1) In general, a low concentration of a radioligand with a high binding affinity for a particular receptor or transporter is incubated with a sample of a tissue preparation enriched in a particular receptor or transporter or with a preparation of cells expressing cloned human receptors in a buffered medium. During the incubation, the radioligand binds to the receptor or transporter. When equilibrium of binding is reached, the receptor bound radioactivity is separated from the non-bound radioactivity, and the receptor- or transporter-bound activity is counted. The interaction of the test compounds with the receptor is assessed in competition binding experiments. Various concentrations of the test compound are added to the incubation mixture containing the receptor- or transporter preparation and the radioligand. The test compound in proportion to its binding affinity and its concentration inhibits binding of the radioligand. The radioligand used for hα2A, hα2B and hα2C receptor binding was [^3H]-raulwolscine and for the h5-HT transporter was [^3H]paroxetine. CHO cells, stabile transfected with human adrenergic-α2A-, -α2B or α2C receptor cDNA, were cultured in Dulbecco's Modified Eagle's Medium (DMEM)/Nutrient mixture Ham's F12 (ratio 1:1)(Gibco, Gent-Belgium) supplemented with 10% heat inactivated fetal calf serum (Life Technologies, Merelbeke-Belgium) and antibiotics (100 IU/ml penicillin G, 100 μg/ml streptomycin sulphate, 110 μg/ml pyruvic acid and 100 μg/ml L-glutamine). One day before collection, cells were induced with 5 mM sodiumbutyrate. Upon 80-90% of confluence, cells were scraped in phosphate buffered saline without Ca^2+ and Mg^2+ and collected by centrifugation at 1500×g for 10 min. The cells were homogenised in Tris-HCl 50 mM using an Ultraturrax homogenizer and centrifuged for 10 min at 23,500×g. The pellet was washed once by resuspension and rehomogenization and the final pellet was resuspended in Tris-HCl, divided in 1 ml aliquots and stored at −70° C. Membranes were thawed and re-homogenized in incubation buffer (glycylglycine 25 mM, pH 8.0). In a total volume of 500 μl, 2-10 μg protein was incubated with [^3H]raulwolscine (NET-722) (New England Nuclear, USA) (1 nM final concentration) with or without competitor for 60 min at 25° C. followed by rapid filtration over GF/B filter using a Filtermate196 harvester (Packard, Meriden, Conn.). Filters were rinsed extensively with ice-cold rinsing buffer (Tris-HCl 50 mM pH 7.4). Filter-bound radioactivity was determined by scintillation counting in a Topcount (Packard, Meriden, Conn.) and results were expressed as counts per minute (cpm). Non-specific binding was determined in the presence of 1 μM oxymetazoline for hα2A- and hα2B receptors and 1 μM spiroxatrine for hα2C receptors. Data from assays in the presence of compound were calculated as a percentage of total binding measured in the absence of test compound. Inhibition curves, plotting percent of total binding versus the log value of the concentration of the test compound, were automatically generated, and sigmoidal inhibition curves were fitted using non-linear regression. The pIC50 values of test compounds were derived from individual curves.
# hα2B receptor = molecular target: T2, hα2B receptor (Homo sapiens, UniProt P18089); test: Radioligand binding experiment for α2B-adrenergic receptor ([3H]-raulwolscine); conditions: CHO cell membranes with human α2B receptor, [3H]raulwolscine 1 nM
# T2 construct: expressed in transfected cells
# T2 sequence (P18089 1-450): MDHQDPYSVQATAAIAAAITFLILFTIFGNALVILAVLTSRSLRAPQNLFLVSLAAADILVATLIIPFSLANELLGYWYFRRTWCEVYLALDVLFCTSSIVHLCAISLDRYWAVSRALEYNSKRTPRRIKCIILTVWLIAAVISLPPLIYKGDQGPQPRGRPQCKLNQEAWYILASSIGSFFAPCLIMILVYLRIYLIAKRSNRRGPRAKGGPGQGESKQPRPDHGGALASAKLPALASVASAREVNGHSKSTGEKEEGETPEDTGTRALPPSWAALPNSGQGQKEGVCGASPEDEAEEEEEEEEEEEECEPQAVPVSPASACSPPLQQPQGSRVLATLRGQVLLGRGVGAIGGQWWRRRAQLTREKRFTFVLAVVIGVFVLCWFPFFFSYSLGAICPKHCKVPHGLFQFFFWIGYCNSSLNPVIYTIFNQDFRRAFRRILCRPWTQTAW
# Protocol: as §1
# hα2C receptor = molecular target: T3, hα2C receptor (Homo sapiens, UniProt P18825); test: Radioligand binding experiment for α2C-adrenergic receptor ([3H]-raulwolscine)
# T3 construct: expressed in transfected cells
# T3 sequence (P18825 1-462): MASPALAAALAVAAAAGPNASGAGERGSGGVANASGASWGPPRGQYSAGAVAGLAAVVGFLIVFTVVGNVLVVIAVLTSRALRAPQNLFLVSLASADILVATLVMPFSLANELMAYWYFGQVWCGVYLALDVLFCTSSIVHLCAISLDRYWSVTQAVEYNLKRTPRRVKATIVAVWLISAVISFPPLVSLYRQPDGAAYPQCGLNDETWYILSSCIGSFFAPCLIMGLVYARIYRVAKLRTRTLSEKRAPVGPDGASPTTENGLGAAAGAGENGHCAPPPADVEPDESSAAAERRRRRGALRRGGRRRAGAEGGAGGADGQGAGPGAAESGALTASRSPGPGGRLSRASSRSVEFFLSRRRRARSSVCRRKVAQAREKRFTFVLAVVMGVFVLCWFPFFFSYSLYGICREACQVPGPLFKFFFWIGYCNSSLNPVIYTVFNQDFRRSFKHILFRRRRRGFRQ
# Protocol: as §1
# h5-HT transporter = molecular target: T4, h5-HT transporter (Homo sapiens, UniProt P31645); test: Radioligand binding experiment for 5-HT transporter ([3H]paroxetine); conditions: human platelet membranes, [3H]paroxetine 0.5 nM
# T4 construct: Human platelet membranes (Oceanix Biosciences Corporation, Hanover, Md., USA) were thawed; tissue Oceanix Biosciences Corporation, Hanover, Md., USA; host or cells: human platelet membranes
# Protocol: In general, a low concentration of a radioligand with a high binding affinity for a particular receptor or transporter is incubated with a sample of a tissue preparation enriched in a particular receptor or transporter or with a preparation of cells expressing cloned human receptors in a buffered medium. During the incubation, the radioligand binds to the receptor or transporter. When equilibrium of binding is reached, the receptor bound radioactivity is separated from the non-bound radioactivity, and the receptor- or transporter-bound activity is counted. The interaction of the test compounds with the receptor is assessed in competition binding experiments. Various concentrations of the test compound are added to the incubation mixture containing the receptor- or transporter preparation and the radioligand. The test compound in proportion to its binding affinity and its concentration inhibits binding of the radioligand. The radioligand used for hα2A, hα2B and hα2C receptor binding was [^3H]-raulwolscine and for the h5-HT transporter was [^3H]paroxetine. Human platelet membranes (Oceanix Biosciences Corporation, Hanover, Md., USA) were thawed, diluted in buffer (Tris-HCl 50 mM, 120 mM NaCl and 5 mM KCl) and quickly (max 3 s) homogenised with an Ultraturrax homogenizer. In a total volume of 250 μL, 50-100 μg protein was incubated with [^3H]paroxetine (NET-869) (New England Nuclear, USA) (0.5 nM final concentration) with or without competitor for 60 min at 25 ° C. Incubation was stopped by rapid filtration of the incubation mixture over GF/B filters, pre-wetted with 0.1% polyethyleneamine, using a Filtermate196 harvester (Packard, Meriden, Conn.). Filters were rinsed extensively with ice-cold buffer and radioactivity on the filters was counted in a Topcount liquid scintillation counter (Packard, Meriden, Conn.). Data were expressed as cpm. Imipramine (at 1 μM final concentration) was used to determine the non-specific binding. Data from assays in the presence of compound were calculated as a percentage of total binding measured in the absence of test compound. Inhibition curves, plotting percent of total binding versus the log value of the concentration of the test compound, were automatically generated, and sigmoidal inhibition curves were fitted using non-linear regression. The pIC50 values of test compounds were derived from individual curves.
# [1] = CHO cell membranes with human α2C receptor, [3H]raulwolscine 1 nM
# [2] = read-out: hα2A (pIC50) (converted)
# [3] = CHO cell membranes with human α2C receptor, [3H]raulwolscine 1 nM, read-out: hα2C (pIC50) (converted)
# [4] = read-out: 5-HTT (pIC50) (converted)
# T4 sequence (P31645 whole entry): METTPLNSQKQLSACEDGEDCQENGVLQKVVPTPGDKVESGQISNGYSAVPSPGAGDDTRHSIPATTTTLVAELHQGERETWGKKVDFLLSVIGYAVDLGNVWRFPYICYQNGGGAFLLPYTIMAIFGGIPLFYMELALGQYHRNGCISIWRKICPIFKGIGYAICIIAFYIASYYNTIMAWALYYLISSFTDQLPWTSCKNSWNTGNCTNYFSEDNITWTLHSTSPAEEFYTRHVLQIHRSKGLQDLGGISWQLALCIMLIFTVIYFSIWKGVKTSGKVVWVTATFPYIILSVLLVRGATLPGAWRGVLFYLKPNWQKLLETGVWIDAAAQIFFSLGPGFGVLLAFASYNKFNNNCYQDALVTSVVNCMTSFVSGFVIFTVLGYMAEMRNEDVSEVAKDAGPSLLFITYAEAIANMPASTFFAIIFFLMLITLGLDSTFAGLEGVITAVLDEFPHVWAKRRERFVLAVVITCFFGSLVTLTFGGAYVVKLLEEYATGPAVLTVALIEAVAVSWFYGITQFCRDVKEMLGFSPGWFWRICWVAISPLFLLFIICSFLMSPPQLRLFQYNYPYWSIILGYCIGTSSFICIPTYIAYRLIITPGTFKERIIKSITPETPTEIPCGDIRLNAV
Compound,hα2A (pIC50) (hα2A receptor),hα2C (pIC50) (hα2C receptor; [1]),5-HTT (pIC50) (h5-HT transporter),further results
C/C(=C\c1cccc(F)c1)CN1CCN(CC2ON=C3c4cc5cc[nH]c5cc4OCC32)CC1 (racemic) [Compound 2],8.1,9.0,8.3,hα2B (pIC50) (hα2B receptor): 8.3
C/C(=C\c1ccc(F)cc1)CN1CCN(CC2ON=C3c4cc5cc[nH]c5cc4OCC32)CC1 (racemic) [Compound 3],7.8,8.7,8.2,hα2B (pIC50) (hα2B receptor): 7.6
c1ccc2cc(CN3CCN(CC4ON=C5c6cc7cc[nH]c7cc6OCC54)CC3)ccc2c1 (racemic) [Compound 4],7.6,8.4,8.8,hα2B (pIC50) (hα2B receptor): 7.3
Clc1ccc(CN2CCN(CC3ON=C4c5cc6cc[nH]c6cc5OCC43)CC2)cc1 (racemic) [Compound 5],6.7,7.4,7.8,–
CC(=CCN1CCN(CC2ON=C3c4cc5cc[nH]c5cc4OCC32)CC1)c1ccccc1 (racemic) [Compound 6],8.1,8.6,8.3,–
C/C(=C\c1ccccc1)CN1CCN(CC2ON=C3c4cc5ccn(C(=O)C6CC6)c5cc4OCC32)CC1 (racemic) [Compound 12],8.2,8.5,7.7,–
COC(=O)n1ccc2cc3c(cc21)OCC1C3=NOC1CN1CCN(C/C(C)=C/c2ccccc2)CC1 (racemic) [Compound 13],8.4,8.4,7.9,–
COCC(=O)n1ccc2cc3c(cc21)OCC1C3=NOC1CN1CCN(C/C(C)=C/c2ccccc2)CC1 (racemic) [Compound 14],8.5,8.9,8.4,–
C/C(=C\c1cccc(F)c1)CN1CCN(CC2ON=C3c4ccncc4OCC32)CC1 (racemic) [Compound 20],9.2,8.8,7.6,–
C/C(=C\c1ccc(F)cc1)CN1CCN(CC2ON=C3c4ccncc4OCC32)CC1.O=C(O)C(=O)O (racemic) [Compound 21],8.2,7.8,7.1,–
"C/C(=C\c1ccccc1)CN1CCN(CC2ON=C3c4cc5ccn(C)c5cc4OCC32)CC1 (stereo not drawn) [Compound 7, 7-methyl-3-[4-(2-methyl-3-phenyl-allyl)-piperazin-1-ylmethyl]-3a,4-dihydro-3H,7H-2,5-dioxa-1,7-diaza-dicyclopenta[a,g]naphthlene]",–,–,–,IC50 (hα2A receptor; hα2A (pIC50)): 3.16 nM; IC50 (hα2C receptor): 0.794 nM; IC50 (h5-HT transporter; 5-HTT (pIC50)): 5.01 nM
"CC(=O)n1ccc2cc3c(cc21)OCC1C3=NOC1CN1CCN(C/C(C)=C/c2ccccc2)CC1 (stereo not drawn) [Compound 11, 1-{3-[4-(2-methyl-3-phenyl-allyl)-piperazin-1-ylmethyl]-3a,4-dihydro-3H-2,5-dioxa-1,7-diaza-dicyclopenta[a,g]naphthalen7-yl}-ethanone]",–,–,–,IC50 (hα2A receptor; hα2A (pIC50)): 2.51 nM; IC50 (hα2C receptor): 1 nM; IC50 (h5-HT transporter; 5-HTT (pIC50)): 6.31 nM
"c1ccc2cc(CN3CCN(CC4ON=C5c6ccncc6OCC54)CC3)ccc2c1 (stereo not drawn) [Compound 19, 3-(4-naphthalen-2-ylmethyl-piperazin-1-ylmethyl)-3a,4-dihydro-3H-2,5-dioxa-1,7-diaza-cyclopenta[a]naphthalene oxalate salt (1/1)]",–,–,–,IC50 (hα2A receptor; [2]): 10 nM; IC50 (hα2C receptor; [3]): 39.8 nM; IC50 (h5-HT transporter; [4]): 100 nM
"C/C(=C\c1ccccc1)CN1CCN(CC2ON=C3c4cccnc4OCC32)CC1 (stereo not drawn) [Compound 22, 3-[4-(2-methyl-3-phenyl-allyl)-piperazin-1-ylmethyl]-3a,4-dihydro-3H-2,5-dioxa-1,6-diaza-cyclopenta[a]naphthalene oxalate salt]",–,–,–,IC50 (hα2A receptor; [2]): 631 nM; IC50 (hα2C receptor; [3]): 79.4 nM; IC50 (h5-HT transporter; [4]): 6310 nM
